Source: publication PMC2947157, “Development of a FLIPR Assay for the Simultaneous Identification of MrgD Agonists and Antagonists from a Single Screen” (Journal of Biomedicine and Biotechnology, 2010)
Values joined by “and” are separate entries in the source; they are usually repeats but may differ in a detail not shown here. Identical values can stand only once. Counter-ions that a name gives are not always drawn. Like-named read-outs stand apart in the source and are kept apart here.

Assays:
[1] = biological target: T1, MrgD (Homo sapiens, UniProt Q8TDS7); experiment: Calcium mobilization FLIPR assay, agonist dose-response, CHO-DUKX cells expressing human MrgD; assay type: cell-based; details: for FLIPR response in human MrgD expressing cells: result in words
T1 construct: expressed in transfected cells
Procedure: (§1) A Kozak sequence and HA epitope tag were incorporated in the forward primer. […] A Kozak sequence and c-Myc epitope tag were incorporated in the forward primer. The resulting PCR products were cloned into the Xba I and EcoR I sites of pHTOP vector, a proprietary derivative of the pED expression vector [12]. For transfection, CHO-DUKX-A2 cells (DHFR(−) CHO cell line stably expressing the tetracycline transactivator) were grown in M alpha media containing 1% MEM nonessential amino acids solution (NEAA), 10% fetal bovine serum (FBS), and 500 ug/mL G418. MrgDpHTOP was transfected using Lipofectamine Plus reagents as per the manufacturer's recommendations. Antibiotic selection was performed using Dulbecco's modified Eagle medium supplemented with 10% FBS, 100 units/mL penicillin, 100 μg/mL streptomycin, 1% NEAA, and 20 nM methotrexate (Calbiochem, San Diego, CA). Cell lines were maintained at 37°C in a humidified atmosphere containing 5% CO2. Surviving colonies were expanded further and used for functional analysis. Clones of human MrgD expressing cell lines were evaluated initially for MrgD transcript level by Taqman analysis and normalized against the house-keeping gene GAPDH (Glyceraldehyde-3-phosphate dehydrogenase).
(§2) CHO-DUKX-A2 cells stably expressing human or rat MrgD were plated in 384-well tissue-culture-treated polystyrene black clear flat-bottom assay plates (BD Biosciences, San Jose, CA). Thirty μL of 8 × 10^5 cells/mL (24,000 cells/well) were plated and maintained for ~24 hrs at 37°C in a humidified atmosphere containing 5% CO2. After removal of the growth medium, cells were incubated with 30 μL of Ca3 dye (Molecular Devices Corporation, Sunnyvale, CA) containing 2.5 mM freshly prepared probenecid made according to the manufacturer's protocol. Agonists were prepared in 1x Hanks balanced salt solution (HBSS) buffer with 20 mM HEPES buffer. Changes in intracellular Ca^2+ were monitored using the Fluorometric Imaging Plate Reader (FLIPR; Molecular Devices, Sunnyvale, CA). For the double addition protocols, compounds were added by the FLIPR, and readings were taken for 3 min, followed by the addition of the agonist. The change in intracellular calcium [Ca^2+] was monitored as an increase in relative fluorescence units (RFUS), and the difference between maximum and minimum RFU was used to calculate dose-response curves. Data analysis was performed using PRISM 4.0 (GraphPAD Software Inc.). For the LOPAC screen, cells were plated in 96-well tissue-culture-treated polystyrene black clear flat-bottom assay plates (BD Biosciences, San Jose, CA). One hundred μL of cells (40,000 cells/well) were plated and maintained under the same conditions as above. For the assay, growth medium was replaced with 90 μL of Ca3 dye containing 2.5 mM freshly prepared probenecid. The FLIPR added 10 μL of beta-alanine at 100 μM final concentration. For antagonist dose-response assays, the cells were incubated with the compounds for ~30 minutes after which beta-alanine at a final concentration of 10 μM was added by the FLIPR.
Target sequence in this assay (Q8TDS7 whole entry): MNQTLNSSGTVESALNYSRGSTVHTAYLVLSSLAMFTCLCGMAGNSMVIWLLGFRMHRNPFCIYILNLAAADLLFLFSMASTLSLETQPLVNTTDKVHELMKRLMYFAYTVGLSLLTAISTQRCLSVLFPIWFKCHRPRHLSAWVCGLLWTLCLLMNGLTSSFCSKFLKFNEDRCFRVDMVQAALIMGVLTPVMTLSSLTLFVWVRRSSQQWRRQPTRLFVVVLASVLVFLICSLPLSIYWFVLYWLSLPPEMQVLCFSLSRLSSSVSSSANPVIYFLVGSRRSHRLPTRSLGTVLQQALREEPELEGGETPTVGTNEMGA

[2] = biological target: T2, rat MrgD (Rattus norvegicus, UniProt Q7TN41); experiment: Calcium mobilization FLIPR assay, agonist dose-response, CHO-DUKX cells expressing rat MrgD; assay type: cell-based; details: for EC50 / EC50 Rat MrgD: CHO-DUKX cells, FLIPR, Table 1: mean ± SD from 2–6 independent experiments; for FLIPR response in rat MrgD expressing cells: result in words
T2 construct: expressed in transfected cells
T2 sequence (Q7TN41 1-319): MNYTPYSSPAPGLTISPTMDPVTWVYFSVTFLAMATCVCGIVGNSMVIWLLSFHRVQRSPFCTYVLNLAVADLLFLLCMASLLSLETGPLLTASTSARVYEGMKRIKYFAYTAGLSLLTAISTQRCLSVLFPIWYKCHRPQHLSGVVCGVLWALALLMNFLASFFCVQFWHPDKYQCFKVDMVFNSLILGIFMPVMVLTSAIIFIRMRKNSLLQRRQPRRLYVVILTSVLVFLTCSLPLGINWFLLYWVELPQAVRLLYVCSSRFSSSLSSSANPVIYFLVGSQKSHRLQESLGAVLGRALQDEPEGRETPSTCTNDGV
Procedure: as §1, §2

[3] = system: MrgD expressing cell lines; details: read-out: EC50 for MrgD expressing cell lines, cited from earlier work
[4] = biological target: T1, MrgD; experiment: Dual-addition FLIPR LOPAC library screen (test compound, then beta-alanine); assay type: cell-based; details: dual-addition format; for Calcium mobilization following addition of beta-alanine (addition 2) in LOPAC screen: beta-alanine 100 μM, Figure 4(b)
Procedure: as §2
Target sequence in this assay (Q8TDS7 whole entry, species assumed): as the sequence (Q8TDS7 whole entry) above
We developed an assay that could allow both agonists and antagonists to be distinguished in a single screen. Employing such an assay format should enable the identification of tool compounds that may help in elucidating the role of MrgD in pain. The diagram in Figure 3 describes the dual-addition assay format where addition of the test compound (addition 1) is followed by the addition of beta-alanine (addition 2). A FLIPR response immediately upon the addition of a test compound would indicate its activity as an agonist. On the other hand, if the compound behaves as an antagonist, not only will there be a lack of response to this test compound, it will also attenuate the effects of the subsequent addition of beta-alanine. In the event of no receptor engagement by the test compound, a normal agonist response will be observed to beta-alanine. We validated this assay format, which was robust and consistent with a Z′ factor greater than 0.7.
Figure 3 Assay format for the identification of an agonist and antagonist from a single screen. Test compound is added first followed by a second addition of beta-alanine. An agonist will induce a FLIPR response immediately upon the addition of a test compound. An antagonist will cause a pharmacological blockade of the MrgD receptor resulting in attenuation or complete lack of response to beta-alanine. In the event of no receptor engagement, a normal agonist response will be observed from beta-alanine addition.
Figure 4 Representative FLIPR traces obtained from LOPAC screen. Compounds from the LOPAC library were applied followed by the addition of beta-alanine. […]

[5] = biological target: T1, MrgD; experiment: FLIPR antagonist dose-response assay against beta-alanine; assay type: cell-based; details: beta-alanine 10 μM, ~30 min preincubation
Procedure: as §2
Target sequence in this assay (Q8TDS7 whole entry, species assumed): as the sequence (Q8TDS7 whole entry) above

[6] = system: beta-alanine-induced calcium mobilization in MrgD CHO-DUKX cells; experiment: Evaluation of Gi and Gq coupling of MrgD by FLIPR response to beta-alanine; assay type: cell-based; details: 100 μM beta-alanine
Procedure: MrgD is known to couple through both Gi and Gq. To further explore the utility of the cell line for a potential secondary assay measuring cAMP, we investigated whether the FLIPR assay was capable of distinguishing the extent of Gi and Gq coupling of MrgD. MrgD CHO-DUKX cells were treated with either the Gi inhibitor pertussis toxin (PTX) overnight or the phospholipase C (PLC) inhibitor U-73122 for 30 or 60 minutes and then evaluated for their responses to beta-alanine.
Figure 2 Evaluation of Gq (Figure 2(a)) and Gi (Figure 2(b)) coupling of MrgD receptors assessed using FLIPR response. MrgD cells were pretreated with the PLC inhibitor (U-73122 at 2 μM for 30 or 60 minutes) or pertussis toxin (100 ng overnight) for blocking Gi coupling to MrgD. FLIPR responses were evaluated by the addition of 100 μM beta-alanine.

[7] = CHO-DUKX cells, FLIPR, Table 1: mean ± SD from 2–6 independent experiments, read-out: EC50 Human MrgD
[8] = HA 966 racemate and enantiomers, species not stated at place, racemate value equals human MrgD value of Table 2, read-out: EC50 as MrgD agonist (Figure 5(a))
[9] = CHO-DUKX cells, FLIPR, Table 1: mean ± SD from 2–6 independent experiments
[10] = unit inferred, read-out: IC50 as MrgD antagonist (dose response analysis)

5, 7 dihydroxytryptamine creatinine sulfate
EC50 [1, 7]: 5.2 µM
EC50 [2]: 9.7 µM

NC1CCN(O)C1=O (racemic) [(±) HA 966]
EC50 [1, 7]: 11 µM
EC50 [2]: 13.2 µM

NC1CCN(O)C1=O (single isomer, unassigned; (+)) [(+) HA 966]
EC50 [1, 8]: 106 µM

NC1CCN(O)C1=O (single isomer, unassigned; (-)) [(−) HA 966]
EC50 [1, 8]: 5.5 µM

NCCC(=O)O [Beta-alanine]
EC50 [1, 7]: 1 to 4 µM and 3.76 µM
EC50 [2]: 1 to 4 µM and 3.77 µM
EC50 ([3]; ref 9): 15 ± 1 µM
EC50 ([3]; ref 11): 8.6 µM

NCCCC(=O)O [GABA, gamma-aminobutyric acid]
EC50 [1, 7]: 53 ± 26 µM
FLIPR response in human MrgD expressing cells [1]: weakly stimulated
EC50 [2]: 49.8 ± 1.5 µM
FLIPR response in rat MrgD expressing cells [2]: weakly stimulated
Response to test compound (addition 1) in LOPAC screen ([4]; Figure 4(a)): evoked a response

NCC1(CC(=O)O)CCCCC1 [Gabapentin]
EC50 Human MrgD [1, 9]: No effect
FLIPR response in human MrgD expressing cells [1]: failed to induce a response
EC50 Rat MrgD [2]: No effect
FLIPR response in rat MrgD expressing cells [2]: failed to induce a response

NCC(=O)O [Glycine]
EC50 [1, 7]: > 100 µM
FLIPR response in human MrgD expressing cells [1]: not
EC50 [2]: > 100 µM
FLIPR response in rat MrgD expressing cells [2]: not

CC(C)C[C@H](CN)CC(=O)O [Pregabalin]
EC50 Human MrgD [1, 9]: No effect
FLIPR response in human MrgD expressing cells [1]: failed to induce a response
EC50 Rat MrgD [2]: No effect
FLIPR response in rat MrgD expressing cells [2]: failed to induce a response

CCCN1CCc2cccc3c2[C@H]1Cc1ccc(O)c(O)c1-3.Cl [R(−)-Propylnorapomorphine hydrochloride]
IC50 [5, 10]: 1.46 µM
Calcium mobilization following addition of beta-alanine (addition 2) in LOPAC screen [4]: attenuation or complete absence of calcium mobilization

COc1ccc2c(c1)CC[C@@H]1[C@@H]2CC[C@]2(C)[C@@H](NCCCCCCN3C(=O)C=CC3=O)CC[C@@H]12 [U-73122]
Effect on FLIPR response to beta-alanine ([6]; U-73122 at 2 μM for 30 or 60 minutes): completely blocked

CCCn1c(=O)c2[nH]c(-c3ccc(OCC(=O)NCCN)cc3)nc2n(CCC)c1=O [Xanthine amine congener]
EC50 [1, 7]: > 100 µM
EC50 [2]: 48.3 µM

CN(C)CCCN1c2ccccc2Sc2ccc(Cl)cc21 [chlorpromazine hydrochloride]
IC50 ([5]; read-out: IC50 as MrgD antagonist (Figure 5 legend)): 2.7 µM
Calcium mobilization following addition of beta-alanine (addition 2) in LOPAC screen [4]: attenuation or complete absence of calcium mobilization

CN[C@@H]1C[C@@H](c2ccc(Cl)c(Cl)c2)c2ccccc21 [indatraline hydrochloride]
Calcium mobilization following addition of beta-alanine (addition 2) in LOPAC screen [4]: attenuation or complete absence of calcium mobilization

CSc1ccc2c(c1)N(CCC1CCCCN1C)c1ccccc1S2 (centres unmarked) [thioridazine hydrochloride]
IC50 [5, 10]: 1.06 µM
Calcium mobilization following addition of beta-alanine (addition 2) in LOPAC screen [4]: attenuation or complete absence of calcium mobilization

pertussis toxin [PTX]
Reduction in calcium mobilization ([6]; pertussis toxin 100 ng overnight): ~50%
